Laboratory results taken from US7776907B2, “Methods for the treatment and management of macular degeneration using cyclopropyl-N-{2-[(1S)-1-(3-ethoxy-4-methoxyphenyl)-2-(methylsulfonyl)ethyl]-3-oxoisoindoline-4-yl}carboxamide” (Celgene Corporation, priority 2002, dated 2010).

Assays:
TNF-α production = test: In vitro pharmacology studies: inhibition of TNF-α production following LPS-stimulation of human PBMC and human whole blood; format: cell-based; settings: compared with thalidomide
Text: One of the biological effects typically exerted by selective cytokine inhibitory drugs is the reduction of synthesis of TNF-α. Specific selective cytokine inhibitory drugs enhance the degradation of TNF-α mRNA. TNF-α may play a pathological role in macular degeneration.
In a specific embodiment, the pharmacological properties of 3-(3,4-dimethoxy-phenyl)-3-(1-oxo-1,3-dihydro-isoindol-2-yl)-propionamide are characterized in in vitro studies. Studies examine the effects of the compound on the production of various cytokines. Inhibition of TNF-α production following LPS-stimulation of human PBMC and human whole blood by the compound is investigated in vitro. […] The pharmacological effects of 3-(3,4-dimethoxy-phenyl)-3-(1-oxo-1,3-dihydro-isoindol-2-yl)-propionamide may derive from its action as an inhibitor of the generation of inflammatory cytokines.

patients with MD = settings: intravitreal injection, one-year period, randomized trial; cited from earlier work
laser-induced CNVM = settings: intravitreal injection, monkeys; cited from earlier work
[1] = animal models; cited from earlier work
MD = settings: cited from earlier work
[2] = tested on: patients with macular degeneration; test: Clinical study in patients with macular degeneration, adjuvant to photodynamic therapy with verteporfin; format: in vivo, human; settings: about 20 mg/day as adjuvant to verteporfin photodynamic therapy for 20 weeks
Experimental: Selective cytokine inhibitory drugs of the invention are administered in an amount of about 20 to about 1,200 mg per day to patients with macular degeneration. In a specific embodiment, clinical studies are performed with forty patients with macular degeneration, who are divided into two groups. The first group receives conventional treatment for closing the leaking choroidal vessels (characteristic of this disease) by photodynamic therapy with verteporfin. Ophthalmol 1999 (117): 1329-1345. The second group receives the same conventional therapy with verteporfin and (+)-2-[1-(3-ethoxy-4 methoxy-phenyl)-2-methylsulfonylethyl]-4 acetylaminoisoindoline 1,3-dione in an amount of about 20 mg/day as an adjuvant for 20 weeks.
However, the first group without (+)-2-[1-(3-ethoxy-4 methoxyphenyl)-2-methylsulfonylethyl]-4 acetylaminoisoindoline 1,3-dione experiences progressive reperfusion of the ablated vessels several weeks after treatment. Progressive visual loss follows which requires the photodynamic therapy to be repeated.

COc1ccc(C(CC(N)=O)N2Cc3ccccc3C2=O)cc1OC (stereo not shown) [3-(3,4-Dimethoxy-phenyl)-3-(1-oxo-1,3-dihydro-isoindol-2-yl)-propionamide]
pharmacological activity profile, potency relative to thalidomide (TNF-α production): five to fifty times more potent than thalidomide

C[C@]12C=CC(=O)C=C1CC[C@H]1[C@@H]3C[C@@H](O)[C@](O)(C(=O)CO)[C@@]3(C)C[C@H](O)[C@@]12F [triamcinolone]
prevention of severe visual loss (patients with MD): fails to prevent severe visual loss | growth of laser-induced CNVM (laser-induced CNVM): inhibits the growth of laser-induced CNVM

verteporfin
accumulation in tissue [1]: also accumulates in the retina

interferon-α
efficacy at treating MD (MD; clinical trial, Arch. Ophthalmol. 115:865-72 (1997)): ineffective at treating MD | adverse effects (MD; human, in vivo): high rate of adverse effects

CCOc1cc(C(CS(C)(=O)=O)N2C(=O)c3cccc(NC(C)=O)c3C2=O)ccc1OC (single isomer, unassigned; (+)) [(+)-2-[1-(3-ethoxy-4 methoxyphenyl)-2-methylsulfonylethyl]-4 acetylaminoisoindoline 1,3-dione]
effect on neovascular cascade / duration of effects of photodynamic therapy [2]: neovascular cascade is sufficiently hindered
